# Experimental data reported in patent US20060160095A1, “Survivin” (EiRx Therapeutics Limited, priority 2002, published 2006).
# Key:
# Neutrophils = assay: Neutrophil survival with BAL or GM-CSF after antisense/missense oligonucleotides (Example 7); type: cell-based, human; conditions: oligonucleotides 0 to 10 μM
# Description: Neutrophils are purified as normal and resuspended in culture medium (RPMI+10% FCS) to give a final conc. of 2×10^6/ml. Five hundred microlitres are added to each well of a 24 well plate, to give a final concentration of 1×10^6/well.
# Either antisense or missense oligonucleotides are added directly to each well over a range of concentrations between 0 μM to 10 μM.
# Cells are then incubated for time intervals between 15 mins to 8 hours. Bronchoalveolar lavage (BAL) fluid, obtained from patients with chronic inflammation, including cystic fibrosis, chronic obstructive pulmonary disease or healthy controls, is then added to each well. As a positive control for increased survival, neutrophils are treated with GM-CSF (0 to 20 units).
# Neutrophil apoptosis is measured as described in Example 1.
# HL60 cells = assay: DNA fragmentation by agarose gel electrophoresis in differentiated HL60 cells; type: cell-based; conditions: 10 μM Retinoic acid
# Description: HL60 cells are seeded at 5×10^6cells in T25 flasks and incubated with 10 μM Retinoic acid for 24, 48, 72, 96, 120 and 144 hrs. Mock treated HL-60 cells were used as a control. Cellular DNA was analysed for fragmentation into oligonucleosomal-size fragments and their multiples by agarose gel electrophoresis. Lanes 1,3,5,7,9,11 contain DNA from HL-60 cells that were differentiated with 10 μM Retinoic Acid over the indicated period whereas samples in lanes 2,4,6,8,10,12,14 are from control HL-60 cells treated for the same time period. Lane 15 is a 1 Kb Plus Ladder Molecular Marker.
# [1] = test system: Primary human neutrophils; assay: MTT survival assay of neutrophils cultured with GM-CSF, with or without gliotoxin; type: cell-based
# Description: Primary human neutrophils are isolated and purified from peripheral blood of normal healthy individuals. Neutrophils are resuspended in serum containing culture medium together with various amounts of GM-CSF at a density of 2×10^6/ml, with 100 μl plated into a 96 well plate and cultured for 18 h at 37° C. After this time 10 μl of MTT (5 mg/ml) is added to the cultures and incubated for a further 4 h at 37° C. before solubilisation of the purple coloured formazan with acidic isopropanol. Optical densities are read at 570 nm using a plate reader.
# Primary human neutrophils are isolated and purified from peripheral blood of normal healthy individuals. Neutrophils are resuspended in serum containing culture medium containing 5 U/ml of GM-CSF at a concentration of 2×10^6/ml. […] After the indicated time, 10 μl of MTT (5 mg/ml) are added to the cultures and incubated for a further 4 h at 37° C. before solubilisation of the purple coloured formazan with acidic isopropanol. Optical densities are read at 570 nm using a plate reader.
# Survivin mRNA = assay: LifeGrid microarray of Survivin transcripts in neutrophils; type: cell-based, human; conditions: gliotoxin added in the presence of GM-CSF
# Description: Primary human neutrophils are isolated and purified from peripheral blood of normal healthy individuals using standard techniques. Neutrophils are resuspended in serum containing culture medium together with GM-CSF (50 U) at a concentration of 2×10^6/ml, and cultured for 0 h (control), 2 h, 4 h and 6 h at 37° C. Total RNA is then prepared from both groups using acid phenol/guanidine isothiocyanate extraction (RNAzol B; Biogenesis), or RNeasy RNA preparation kits (Qiagen). Any contaminating genomic DNA is removed by DNase treatment (DNase I, Gibco-BRL). […]
# This example describes the use of a STORM Phosphoimager to quantitatively image positive signals across the filter arrays. […]
# The captured image file is then analysed using software such as Array Vision (Imaging Research Inc.; See FIG. 5). […] This program contains facilities for spot detection and quantification, and background detection and quantification. […] As the data is imported to the database, a Normalisation factor is calculated and the sDENs values modified accordingly. […] A normalization factor may be derived from Linear Regression calculated by reference to housekeeping genes. Alternatively, the Global Mean is calculated as the average of the sDens values across all of the arrays to be compared and a normalisation factor is then derived by division of the overall spot density with the Global Mean value. […]
compound,measurement,setting,value
"5′-CCCAgCCTTCCAgCTCCTTg-3′ (antisense 5'-CCCAgCCTTCCAgCTCCTTg-3'; as printed in the source, key not given here) [antisense Survivin oligonucleotides]",survival of neutrophils treated with BAL,Neutrophils; BAL derived from patients with chronic inflammation,inhibits the survival
same,survival of neutrophils treated with control cytokine GM-CSF,Neutrophils; GM-CSF as control cytokine,inhibits the survival
"CC1=C(/C=C/C(C)=C/C=C/C(C)=C/C(=O)O)C(C)(C)CCC1 [retinoic acid, Retinoic acid]",onset of apoptosis after differentiation,HL60 cells,~4 days
"CN1C(=O)[C@]23CC4=CC=C[C@H](O)[C@H]4N2C(=O)[C@@]1(CO)SS3 [gliotoxin, Gliotoxin]",block of the GM-CSF inhibition of neutrophil apoptosis (MTT),[1]; 0.1 μg/ml added with 5 U/ml GM-CSF,effectively blocks
same,neutrophil apoptosis with the compound alone (MTT),"[1]; added alone to isolated neutrophils, no GM-CSF",No increased neutrophil apoptosis
same,Increased expression of Survivin following GM-CSF treatment,Survivin mRNA,blocked
